Measurements as given in US12377067B2, “Methods of treating PAH with combinations of ralinepag and other agents” (Arena Pharmaceuticals, Inc., priority 2016, dated 2025).

Experiments:
[1] = test system: human PASMCs from PAH patients; test: Cell proliferation assay (MTS), serum-induced growth; type: cell-based; settings: for inhibition of serum-induced growth (significance) / inhibition at 0.1 µM: drug alone at 100 nM; for inhibition of serum-induced growth (significance): compared to serum and DMSO alone; for IP receptor dependence of the effect: cyclic AMP and cell proliferation assays in human PASMCs from PAH patients; for inhibition at 0.1 µM: Homo sapiens, PASMC, 96 h, compared to FBS and DMSO, 4 days
Experimental: Primary cell lines of distal PASMCs from PAH patients were derived from explanted lungs as previously described (Falcetti et al., 2010; Bubb et al., 2014). These cells have an abnormal proliferative capacity when grown in culture (Zhang et al., 2007; Falcetti et al., 2010). Frozen cells were revived and grown in human smooth muscle basal medium-2 (SMBM; Lonza, Slough, UK) supplemented with 9% fetal bovine serum (FBS) at 37° C. in a humidified atmosphere of 5% CO2. After reaching confluence, cells were washed with phosphate-buffered saline (PBS) and treated with trypsin-EDTA for further passage. Only cells between passages 3 and 10 were used for experiments.
Comparative concentration-dependent effects of IP receptor agonists on cell proliferation were assessed on human PASMCs derived from PAH patients. Cells were seeded onto 96-well plates at a density of 1×10^4 cells/ml and grown at 37° C. in a humidified CO2 incubator in human smooth muscle basal medium-2 (SMBM; Lonza) containing 9% FBS and penicillin-streptomycin (Pen/Strep; 50 units/ml). After 24 hours, cells were growth arrested by incubating for 48 hours in fresh media containing no added serum. Media was then subsequently removed, replaced with human SMBM containing 9% serum with or without 0.1% DMSO in the absence and presence of the IP receptor agonist (either ralinepag, iloprost, treprostinil or MRE-269) and cells treated with the IP receptor agonist for 4 days over the concentration range ([…]). Responses were directly compared in cells containing the IP receptor antagonist, RO-1138452 (1 μM), which was added to cells 30-60 minutes prior to the addition of the IP agonist and remained throughout the experiment. Cells incubated with no added serum over the same time period (4 days) acted as the time control.
Cell proliferation was obtained using an MTS proliferation kit (Promega), a colorimetric method for determining the number of viable cells which is based on the cleavage of the tetrazolium salt MTS to formazan by cellular mitochondrial dehydrogenases. An increase in cell number leads to a proportional increase in the amount of formazan dye formed which is quantified by measuring the absorbance of the dye solution at 490 nm. In each case background absorbance was corrected by subtracting the average absorbance from the “no cell” control wells from all other absorbance values.
Cell proliferation was then normalized to the growth response induced by FBS alone, which was taken as the FBS response minus the time control (=100% growth at 4 days). Growth responses induced in presence of solvent±drugs is shown as % change in cell proliferation relative to the FBS response alone in all figures.
All data are presented as mean±standard error of mean (S.E.M) of at least 5 observations. Agonist log-concentration curves were constructed and fitted using the non-linear fitting routine in GraphPad Prism 4 or 6 (San Diego, Calif., USA). The concentration of agonist causing 50% of the maximal response (Emax) was expressed as the negative log (pEC50) and the mean EC50 calculated. P values <0.05 are considered statistically significant.

human IP receptor = human IP receptor (Homo sapiens, UniProt P43119); settings: cited from earlier work
Chain of human IP receptor (P43119 whole entry): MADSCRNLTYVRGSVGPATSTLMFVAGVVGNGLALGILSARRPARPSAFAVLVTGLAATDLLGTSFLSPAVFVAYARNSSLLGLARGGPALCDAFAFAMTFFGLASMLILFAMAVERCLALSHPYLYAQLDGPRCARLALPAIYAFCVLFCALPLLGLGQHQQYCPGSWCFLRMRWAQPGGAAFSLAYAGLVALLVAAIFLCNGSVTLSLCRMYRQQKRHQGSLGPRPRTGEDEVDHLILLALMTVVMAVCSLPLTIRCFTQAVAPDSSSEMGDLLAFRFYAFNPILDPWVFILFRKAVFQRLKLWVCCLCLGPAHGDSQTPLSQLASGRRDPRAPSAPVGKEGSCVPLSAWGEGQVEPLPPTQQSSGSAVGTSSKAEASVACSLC

[2] = test system: human PASMCs from PAH patients; test: Cyclic AMP assay; type: cell-based; settings: cyclic AMP assay
Experimental: Human PASMCs from PAH patients were grown to 70-80% confluence in 12 well plates in DMEM/F12 containing 9% foetal bovine serum (FBS), penicillin (50 U/ml)/streptomycin (50 ag/ml). To assess the time-course of cAMP elevation, cells were stimulated with 100 nM ralinepag for varying times (0.5, 1, 2, 4, 8, 24, 48 hours). This dose of ralinepag was chosen on the basis that it was close to the EC50 for cAMP generation in preliminary experiments. In other experiments, the IP receptor agonist was added for a specified time (60 minutes) over a full concentration range (0.1-10,000 nM) in the absence and presence of […] of the IP receptor antagonist, RO-1138452. The antagonist is added 30 minutes beforehand and remained throughout.
To extract cyclic AMP, the medium was aspirated and PASMCs cells incubated in 0.1 M HCl for 20 minutes on ice followed by centrifugation at 1000 g for 10 minutes at 4° C. The protein concentration in the supernatant was determined using a […] protein assay (BCA, Novagen, EmD Chemicals, CA, USA). Intracellular cyclic AMP was measured using a competitive enzyme immunoassay 96 well plate kit (ADI-900-163, Enzo Life Sciences, Exeter, UK) and the assay performed according to the manufacturer's instructions. Each sample was run in duplicate and data expressed as pmol of cAMP per mg of total protein for each individual sample. Basal levels were subtracted from each agonist concentration data point. Given the large variation (˜15-fold) in cAMP generation from different patient samples, data was also normalized to the peak cyclic AMP response (assigned 100%) in each cell isolate.

PDE1 = settings: cited from earlier work

SMILES: COc1ccccc1Oc1c(NS(=O)(=O)c2ccc(C(C)(C)C)cc2)nc(-c2ncccn2)nc1OCCO [bosentan, reference compound]
- inhibition of serum-induced growth (significance) [1]: did not cause a significant inhibition

SMILES: CC(C)N(CCCCOCC(=O)NS(C)(=O)=O)c1cnc(-c2ccccc2)c(-c2ccccc2)n1 [selexipag, 2-{4-[(5,6-diphenylpyrazin-2-yl)(propan-2-yl)amino]butoxy}-N-(methanesulfonyl)acetamide]
- Ki (human IP receptor): 260 nM

SMILES: CC(C)N(CCCCOCC(=O)O)c1cnc(-c2ccccc2)c(-c2ccccc2)n1 [MRE-269, [4[(5,6diphenylpyrazinyl)(1methylethyl)amino]butoxy]acetic acid, reference compound]
- Ki (human IP receptor): 20 nM
- maximal effect compared with treprostinil [2]: weaker maximal effects
- maximal effect compared with treprostinil ([1]; cell proliferation assay): weaker maximal effects
- IP receptor dependence of the effect [1]: selective IP receptor agonists

SMILES: CCCNS(=O)(=O)Nc1ncnc(OCCOc2ncc(Br)cn2)c1-c1ccc(Br)cc1 [macitentan, reference compound]
- inhibition at 0.1 µM [1]: ~12%

SMILES: CC#CCC(C)[C@H](O)/C=C/[C@@H]1[C@H]2C/C(=C/CCCC(=O)O)C[C@H]2C[C@H]1O (some centres unmarked) [iloprost, reference compound]
- IP receptor dependence of the effect [1]: IP-independent mechanisms

SMILES: CCCCC[C@H](O)CC[C@@H]1[C@H]2Cc3cccc(OCC(=O)O)c3C[C@H]2C[C@H]1O [treprostinil, reference compound]
- antiproliferative response in the presence of an IP receptor antagonist ([1]; IP receptor antagonist RO-1138452 (1 μM)): only weakly inhibited
- IP receptor dependence of the effect [1]: IP-independent mechanisms
- inhibition of serum-induced growth (significance) [1]: significantly inhibited growth

SMILES: CCCc1nn(C)c2c(=O)[nH]c(-c3cc(S(=O)(=O)N4CCN(C)CC4)ccc3OCC)nc12 [sildenafil, reference compound]
- Ki (PDE1): 40 nM
- inhibition of serum-induced growth (significance) [1]: did not significantly inhibit growth

SMILES: COC(=O)N(C)c1c(N)nc(-c2nn(Cc3ccccc3F)c3ncccc23)nc1N [riociguat, reference compound]
- inhibition at 0.1 µM [1]: ~15%
